In patent US6897209B2, “Labelled factor XIIIa substrates” (GE Healthcare Limited, priority 1997, dated 2005):
Values belong to the compound of their own block, whether it stands above or below them.

Tests used:
human plasma clots [1] = target: T1, human plasma clots (Homo sapiens, UniProt P00488); test: Incorporation into human plasma clots (in vitro plasma clot assay); type: biochemical; conditions: for % specific uptake*: % retained with thrombin − % retained no thrombin; for % retained in plasma clot assay (with thrombin): human plasma with thrombin and calcium chloride, 60 minutes, ca. 20° C.
T1 construct: Factor XIII is transformed into its active form Factor XIIIa by thrombin in the presence of calcium ions; from tissue; host or cells: human plasma, clotted in vitro with thrombin and calcium chloride
T1 sequence (P00488 39-732): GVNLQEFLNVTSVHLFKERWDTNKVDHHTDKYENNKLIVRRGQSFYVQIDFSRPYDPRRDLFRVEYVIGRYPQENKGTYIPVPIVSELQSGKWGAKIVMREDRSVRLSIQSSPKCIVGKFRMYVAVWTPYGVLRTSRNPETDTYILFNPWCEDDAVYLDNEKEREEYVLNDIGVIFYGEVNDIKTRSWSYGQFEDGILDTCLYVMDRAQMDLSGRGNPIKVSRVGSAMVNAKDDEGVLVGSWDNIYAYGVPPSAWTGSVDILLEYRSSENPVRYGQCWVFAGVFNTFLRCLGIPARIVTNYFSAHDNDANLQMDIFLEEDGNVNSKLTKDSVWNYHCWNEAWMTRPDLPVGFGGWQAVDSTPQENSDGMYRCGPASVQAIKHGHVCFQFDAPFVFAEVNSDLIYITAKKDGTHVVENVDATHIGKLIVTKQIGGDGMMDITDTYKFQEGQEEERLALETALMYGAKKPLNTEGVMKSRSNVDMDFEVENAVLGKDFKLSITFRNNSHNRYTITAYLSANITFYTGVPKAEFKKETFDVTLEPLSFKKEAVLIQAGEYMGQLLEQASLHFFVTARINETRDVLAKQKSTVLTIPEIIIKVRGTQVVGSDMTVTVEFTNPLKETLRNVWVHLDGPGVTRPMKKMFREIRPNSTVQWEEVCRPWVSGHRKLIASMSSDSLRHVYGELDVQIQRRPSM
Procedure: (§1) Incorporation of radiolabelled substrates into fibrin was investigated by induction of an in vitro human plasma clot in the following manner. To a siliconised 5 ml glass vial was added, (a) 800 μl of Tris(hydroxymethyl)aminomethane buffered saline pH 7.5 containing calcium chloride (50 mM Tris, 150 mM sodium chloride, 4 mM calcium chloride.), (b) 40 μl of physiological salt solution containing 100 units of thrombin per ml, (c) 400 μl of human plasma containing the radiolabelled substrate at a concentration of typically 10 kBq/ml. To aid induction of clot a roughened glass rod was added to the reaction vial. Control vials were prepared similarly but with the omission of thrombin and calcium chloride.
(§2) The proportion of total radioactivity was calculated by counting in suitable detection apparatus.
(§3) The fraction of radioactivity retained on the filter, after subtraction of the non-specific binding determined from the control, is a measure of incorporation into the filtered clots.

human plasma clots [2] = test: as above; type: biochemical; conditions: control vials without thrombin and calcium chloride, 60 minutes
Procedure: as §1, §2, §3

Factor XIIIa = target: T2, Factor XIIIa (Homo sapiens, UniProt P00488); test: Factor XIIIa dependency of incorporation (dimethylcasein uptake, normal vs Factor XIII deficient plasma); type: biochemical; conditions: 1 KBq/ml, 60 minutes; uptake in normal plasma minus Factor XIII deficient plasma
T2 construct: Factor XIII is transformed into its active form Factor XIIIa by thrombin in the presence of calcium ions; from tissue; host or cells: human plasma
T2 sequence (P00488 39-732 limits assumed): T1 sequence (P00488 39-732)
Procedure: The assay was changed by replacing the mercaptoethanol with aprotinin at a final concentration of 2 μg/ml, and dimethylcasein (DMC) was used instead of casein.

[3] = Normal rat biodistribution; type: in vivo; conditions: i.v., male Wistar rats, Mean±SD n=3
Procedure: The resolution of a clot image is dependant on the combination of rate of incorporation of the radiopharmaceutical and its blood/tissues clearance rate. For this reason the biodistribution of several compounds has been determined in rats. Male Wistar (100-150 g) rats were injected i.v. with 0.1-0.2 ml of radiolabelled tracer solution (8 MBq/ml) and dissected at different times post-injection. The % ID in each of the selected tissues was measured. Some animals were kept in metabolism cages to be able to determine the % ID excreted in urine and faeces. The dissection times used for the majority of the agents was 2, 15, 30, 60, 240 min. Data are shown as % ID, Mean±SD, (n=3).

[4] = tested on: clots induced in rat inferior vena cava; test: Incorporation into clots induced in a rat model (rat inferior vena cava model); type: in vivo; conditions: rat IVC model; for Clot/Blood / Clot/Heart / Clot/Liver / Clot/Lung: 60 min; for % ID/g (clot uptake) / Relative conc (cpm/g of clot by dose/g animal): compound injected 5 min post-induction, clot removed after 60 min
Procedure: The rats (Male Wistar, 250-350 g) were anaesthetised with 15% urethane. After laparotomy, the vena cava was isolated and freed of surrounding fat tissue. […] The average weight of the clots formed in this model was around 27 mg, n=32, (5-50 mg range). The so compounds were injected 5 min post-induction. After 60 min the animals were sacrificed and the clot removed, weighed and counted. Other tissues e.g. blood, lung, heart, were also dissected and counted. The uptake of tracer into the clot was determined as the relative concentration (cpm/g of clot by dose/g animal ) and clot to background tissue.

% specific uptake* (human plasma clots [1]): 18.4%
% retained in plasma clot assay (with thrombin) (human plasma clots [1]): 23%
% specific DMC casein uptake (Factor XIIIa): 45%
% ID Blood ([3]; 2 min post-injection): 22.59 ± 1.44 % ID
% ID GI Tract ([3]; 2 min post-injection): 9.75 ± 1.2 % ID
% ID Heart ([3]; 2 min post-injection): 0.63 ± 0.17 % ID
% ID Kidney ([3]; 2 min post-injection): 4.56 ± 0.29 % ID
% ID Liver ([3]; 2 min post-injection): 19.6 ± 2.16 % ID
% ID Lung ([3]; 2 min post-injection): 1.61 ± 0.06 % ID
% ID Muscle ([3]; 2 min post-injection): 21.6 ± 2.08 % ID
% ID Urine ([3]; 2 min post-injection): 0.13 ± 0.06 % ID
% ID Blood ([3]; 15 min post-injection): 1.22 ± 0.06 % ID
% ID GI Tract ([3]; 15 min post-injection): 70.9 ± 1.3 % ID
% ID Heart ([3]; 15 min post-injection): 0.06 ± 0.04 % ID
% ID Kidney ([3]; 15 min post-injection): 1.9 ± 0.95 % ID
% ID Liver ([3]; 15 min post-injection): 10.0 ± 0.86 % ID
% ID Lung ([3]; 15 min post-injection): 0.21 ± 0.03 % ID
% ID Muscle ([3]; 15 min post-injection): 3.97 ± 0.56 % ID
% ID Urine ([3]; 15 min post-injection): 6.23 ± 1.23 % ID
% ID Blood ([3]; 30 min post-injection): 0.55 ± 0.19 % ID
% ID GI Tract ([3]; 30 min post-injection): 80.7 ± 2.4 % ID
% ID Kidney ([3]; 30 min post-injection): 1.8 ± 0.42 % ID
% ID Liver ([3]; 30 min post-injection): 4.53 ± 0.5 % ID
% ID Lung ([3]; 30 min post-injection): 0.1 ± 0.04 % ID
% ID Muscle ([3]; 30 min post-injection): 1.6 ± 0.82 % ID
% ID Urine ([3]; 30 min post-injection): 7.18 ± 1.24 % ID
% ID Blood ([3]; 60 min post-injection): 0.39 ± 0.05 % ID
% ID GI Tract ([3]; 60 min post-injection): 85.4 ± 0.12 % ID
% ID Heart ([3]; 60 min post-injection): 0.03 ± 0.01 % ID
% ID Kidney ([3]; 60 min post-injection): 1.06 ± 0.22 % ID
% ID Liver ([3]; 60 min post-injection): 2.63 ± 0.38 % ID
% ID Lung ([3]; 60 min post-injection): 0.08 ± 0.01 % ID
% ID Muscle ([3]; 60 min post-injection): 1.22 ± 0.28 % ID
% ID Urine ([3]; 60 min post-injection): 7.71 ± 0.49 % ID
% ID Blood ([3]; 240 min post-injection): 0.1 ± 0.02 % ID
% ID GI Tract ([3]; 240 min post-injection): 87.5 ± 2.8 % ID
% ID Heart ([3]; 240 min post-injection): 0.01 ± 0.02 % ID
% ID Kidney ([3]; 240 min post-injection): 0.85 ± 0.08 % ID
% ID Liver ([3]; 240 min post-injection): 1.39 ± 0.29 % ID
% ID Lung ([3]; 240 min post-injection): 0.05 ± 0.02 % ID
% ID Muscle ([3]; 240 min post-injection): 0.22 ± 0.31 % ID
% ID Urine ([3]; 240 min post-injection): 8.55 ± 2.76 % ID
SMILES: CC(=NO)C(C)(C)NCC(C)(CNC(=O)C1CCC(CNC(=O)c2ccc(S(=O)(=O)NCCCCCN)cc2)CC1)CNC(C)(C)C(C)=NO (stereo not shown) [Compound 8, 3,3,6,9,9-pentamethyl-6-N[4-N-{(4-N-(5-aminopentyl)amidosulphonyl)benzoyl}aminomethylcyclohexylcarbonyl]aminomethyl-4,8-diazaundecane-2,10-dione dioxime]
% retained in plasma clot assay (no thrombin) (human plasma clots [2]): 4.6%
Clot/Blood [4]: 4.1
Clot/Heart [4]: 8.1
Clot/Liver [4]: 0.40
Clot/Lung [4]: 4.4
% ID/g (clot uptake) [4]: 0.17 ± 0.09 % ID/g
Relative conc (cpm/g of clot by dose/g animal) [4]: 0.59 ± 0.31

% specific uptake* (human plasma clots [1]): 2.6%
% retained in plasma clot assay (with thrombin) (human plasma clots [1]): 3%
% specific DMC casein uptake (Factor XIIIa): 2%
% ID Blood ([3]; 2 min post-injection): 10.33 ± 1.2 % ID
% ID GI Tract ([3]; 2 min post-injection): 13.6 ± 0.8 % ID
% ID Heart ([3]; 2 min post-injection): 0.33 + 0.06 % ID
% ID Kidney ([3]; 2 min post-injection): 8.34 ± 2.7 % ID
% ID Liver ([3]; 2 min post-injection): 19.9 ± 0.87 % ID
% ID Lung ([3]; 2 min post-injection): 1.08 ± 0.15 % ID
% ID Muscle ([3]; 2 min post-injection): 22.6 ± 0.8 % ID
% ID Urine ([3]; 2 min post-injection): 2.44 ± 1.68 % ID
% ID Blood ([3]; 30 min post-injection): 0.98 ± 0.18 % ID
% ID GI Tract ([3]; 30 min post-injection): 62.7 ± 2.7 % ID
% ID Heart ([3]; 30 min post-injection): 0.04 + 0.02 % ID
% ID Kidney ([3]; 30 min post-injection): 2.39 ± 0.81 % ID
% ID Liver ([3]; 30 min post-injection): 5.06 ± 0.89 % ID
% ID Lung ([3]; 30 min post-injection): 0.16 % ID
% ID Muscle ([3]; 30 min post-injection): 5.27 ± 0.4 % ID
% ID Urine ([3]; 30 min post-injection): 19.49 ± 1.96 % ID
% ID Blood ([3]; 60 min post-injection): 0.43 ± 0.07 % ID
% ID GI Tract ([3]; 60 min post-injection): 68.6 ± 0.4 % ID
% ID Heart ([3]; 60 min post-injection): 0.02 + 0.02 % ID
% ID Kidney ([3]; 60 min post-injection): 1.49 ± 0.04 % ID
% ID Liver ([3]; 60 min post-injection): 5.3 ± 0.9 % ID
% ID Lung ([3]; 60 min post-injection): 0.1 ± 0.04 % ID
% ID Muscle ([3]; 60 min post-injection): 2.26 ± 0.05 % ID
% ID Urine ([3]; 60 min post-injection): 18.81 ± 0.85 % ID
% ID Blood ([3]; 240 min post-injection): 0.21 ± 0.08 % ID
% ID GI Tract ([3]; 240 min post-injection): 70.1 ± 1.9 % ID
% ID Heart ([3]; 240 min post-injection): 0.01 + 0.04 % ID
% ID Kidney ([3]; 240 min post-injection): 1.51 ± 0.02 % ID
% ID Liver ([3]; 240 min post-injection): 3.81 ± 0.92 % ID
% ID Lung ([3]; 240 min post-injection): 0.06 ± 0.01 % ID
% ID Muscle ([3]; 240 min post-injection): 1.94 ± 0.35 % ID
% ID Urine ([3]; 240 min post-injection): 19.88 ± 3.03 % ID
SMILES: CC(=NO)C(C)(C)NCC(C)(CNC(=O)CCCCCN)CNC(C)(C)C(C)=NO (stereo not shown) [Compound 4, 3,3,6,9,9-pentamethyl-6-N-(6aminohexoyl)aminomethyl-4,8-diazaundecane-2,10-dione dioxime]
% retained in plasma clot assay (no thrombin) (human plasma clots [2]): 0.4%
Clot/Blood [4]: 2.3
Clot/Heart [4]: 4.0
Clot/Liver [4]: 0.27
Clot/Lung [4]: 2.7
% ID/g (clot uptake) [4]: 0.18 ± 0.06 % ID/g
Relative conc (cpm/g of clot by dose/g animal) [4]: 0.52 ± 0.2
